Where only a bound is given, the exact number is not on record here.

This note sets out measurements from ChEMBL document CHEMBL5465560, “Selectivity Literature for EUbOPEN Chemogenomic Library” (2024).

Test [1] addresses Serine/threonine-protein kinase 33 (Homo sapiens) (UniProt Q9BYT3). The test can be described thus: Selectivity interaction (Upstate Kinase Profiler service (Millipore)) EUB0000056c STK33. Conditions: at 1 µM.
Test [2] concerns the target Tyrosine-protein kinase Yes (Homo sapiens) (UniProt P07947). The conditions noted are these: at 10 µM.
Test [3] concerns the target 5-hydroxytryptamine receptor 6 (Homo sapiens) (UniProt P50406). The experiment in a line: Selectivity interaction (GPCR panel (PDSP screen)) EUB0001079a HTR6. Conditions: at 10 µM.
Test [4] addresses T1, Histone-arginine methyltransferase CARM1 (Homo sapiens, UniProt Q86X55).
T1 sequence (Q86X55 whole entry): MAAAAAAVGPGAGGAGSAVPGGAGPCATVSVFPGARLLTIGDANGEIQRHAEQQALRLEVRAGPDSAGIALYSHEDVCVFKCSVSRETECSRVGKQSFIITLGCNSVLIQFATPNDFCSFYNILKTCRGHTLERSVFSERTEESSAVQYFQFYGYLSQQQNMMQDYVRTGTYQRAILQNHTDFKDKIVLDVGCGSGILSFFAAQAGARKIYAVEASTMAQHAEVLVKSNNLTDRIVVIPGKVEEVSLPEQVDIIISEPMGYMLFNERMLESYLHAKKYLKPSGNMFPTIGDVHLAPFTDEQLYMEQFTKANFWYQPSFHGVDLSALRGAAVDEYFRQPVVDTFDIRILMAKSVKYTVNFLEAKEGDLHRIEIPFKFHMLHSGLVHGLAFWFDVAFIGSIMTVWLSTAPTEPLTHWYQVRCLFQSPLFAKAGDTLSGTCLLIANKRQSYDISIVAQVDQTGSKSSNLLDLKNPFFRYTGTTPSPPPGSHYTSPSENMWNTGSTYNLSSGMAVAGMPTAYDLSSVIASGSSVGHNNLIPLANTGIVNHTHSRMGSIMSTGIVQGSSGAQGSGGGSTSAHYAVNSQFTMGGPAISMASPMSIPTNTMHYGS
The experiment in a line: Selectivity interaction (Western Blot (dimethylation of BAF155 (BAF155me2a/BAF155) in KMS-27 cells)) EUB0000255b CARM1. The class given is cell-based. Background: In western blotting, separated proteins are transferred to a membrane and probed.

Test [5] deals with Dual specificity protein kinase CLK3 (Homo sapiens, UniProt P49761). The test can be described thus: Selectivity interaction (Enzymatic assay (Eurofins)) EUB0001049a CLK3.
The target of test [6] is Platelet-derived growth factor receptor alpha (Homo sapiens, UniProt P16234). The test can be described thus: Selectivity interaction (KinomeScan (DiscoverX)) EUB0001049a PDGFRA. Conditions: at 1 µM.
The target of test [7] is T2, Bromodomain and PHD finger-containing protein 3 (Homo sapiens) (UniProt Q9ULD4).
T2 sequence (whole entry): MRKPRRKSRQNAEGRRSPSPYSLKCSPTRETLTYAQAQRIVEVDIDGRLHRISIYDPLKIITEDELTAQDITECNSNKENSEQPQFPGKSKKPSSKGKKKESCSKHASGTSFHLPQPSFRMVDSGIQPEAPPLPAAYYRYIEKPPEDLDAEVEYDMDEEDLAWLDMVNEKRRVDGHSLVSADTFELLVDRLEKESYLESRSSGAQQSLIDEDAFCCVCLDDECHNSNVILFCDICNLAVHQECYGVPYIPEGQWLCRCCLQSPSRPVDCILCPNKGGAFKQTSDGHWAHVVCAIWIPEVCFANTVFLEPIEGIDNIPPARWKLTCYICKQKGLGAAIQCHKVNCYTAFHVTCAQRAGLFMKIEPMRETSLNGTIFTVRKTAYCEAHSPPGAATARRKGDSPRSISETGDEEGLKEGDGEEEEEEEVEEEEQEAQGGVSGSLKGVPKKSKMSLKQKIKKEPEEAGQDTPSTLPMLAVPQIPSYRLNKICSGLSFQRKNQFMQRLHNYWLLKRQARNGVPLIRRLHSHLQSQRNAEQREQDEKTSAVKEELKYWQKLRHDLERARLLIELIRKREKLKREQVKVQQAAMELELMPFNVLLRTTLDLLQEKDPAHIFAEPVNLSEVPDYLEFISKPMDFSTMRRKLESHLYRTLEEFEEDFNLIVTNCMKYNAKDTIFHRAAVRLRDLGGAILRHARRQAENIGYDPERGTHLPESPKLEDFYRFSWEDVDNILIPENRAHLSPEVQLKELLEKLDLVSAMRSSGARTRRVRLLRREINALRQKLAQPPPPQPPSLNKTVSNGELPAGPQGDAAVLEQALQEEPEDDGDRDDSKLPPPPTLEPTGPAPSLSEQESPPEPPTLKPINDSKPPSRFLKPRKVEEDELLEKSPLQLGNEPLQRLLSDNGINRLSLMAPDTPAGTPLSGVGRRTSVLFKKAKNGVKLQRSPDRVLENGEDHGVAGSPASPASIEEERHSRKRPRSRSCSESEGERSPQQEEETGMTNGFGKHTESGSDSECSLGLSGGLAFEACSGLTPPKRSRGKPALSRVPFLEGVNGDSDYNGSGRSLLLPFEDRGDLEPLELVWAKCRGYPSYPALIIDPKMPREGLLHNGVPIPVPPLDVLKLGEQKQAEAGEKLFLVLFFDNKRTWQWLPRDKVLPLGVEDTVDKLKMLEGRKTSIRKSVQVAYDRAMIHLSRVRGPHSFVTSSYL
The test can be described thus: Selectivity interaction (PWWP, WD40, and Tudor domain panel (DSLS measurements, literature)) EUB0000270b BRPF3.

Test [8] deals with WD repeat-containing protein 5 (Homo sapiens) (UniProt P61964). The experiment in a line: Selectivity interaction (PWWP, WD40, and Tudor domain panel (DSLS measurements, literature)) EUB0000270b WDR5.
Test [9] addresses T3, MAP kinase-activated protein kinase 5 (Homo sapiens) (UniProt Q8IW41).
T3 sequence (whole entry): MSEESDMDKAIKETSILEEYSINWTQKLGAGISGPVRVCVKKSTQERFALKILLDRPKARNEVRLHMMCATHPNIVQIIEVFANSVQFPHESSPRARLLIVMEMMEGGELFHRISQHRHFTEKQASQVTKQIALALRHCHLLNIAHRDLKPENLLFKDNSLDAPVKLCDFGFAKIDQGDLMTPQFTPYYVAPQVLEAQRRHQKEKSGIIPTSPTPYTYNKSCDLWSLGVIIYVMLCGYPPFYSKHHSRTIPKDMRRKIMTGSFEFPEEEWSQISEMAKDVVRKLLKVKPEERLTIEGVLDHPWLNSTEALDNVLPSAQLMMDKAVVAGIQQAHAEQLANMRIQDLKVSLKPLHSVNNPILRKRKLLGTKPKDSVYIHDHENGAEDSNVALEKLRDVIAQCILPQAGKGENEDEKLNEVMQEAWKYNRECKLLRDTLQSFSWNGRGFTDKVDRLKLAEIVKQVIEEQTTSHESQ
The experiment in a line: Selectivity interaction (KinomeScan (DiscoverX)) EUB0000045b MAPKAPK5.

In test [10] the target is Tyrosine-protein kinase SYK (Homo sapiens, UniProt P43405). The experiment in a line: Selectivity interaction (Kinase panel (Invitrogen)) EUB0000639a SYK. The conditions noted are these: at 200 nM.
In test [11] the target is Serine/threonine-protein kinase pim-2 (Homo sapiens, UniProt Q9P1W9). The experiment in a line: Selectivity interaction (KinomeScan (DiscoverX)) EUB0001619a PIM2. Conditions: at 1 µM.
Serine/threonine-protein kinase pim-2, sequence (Q9P1W9 whole entry, looked up): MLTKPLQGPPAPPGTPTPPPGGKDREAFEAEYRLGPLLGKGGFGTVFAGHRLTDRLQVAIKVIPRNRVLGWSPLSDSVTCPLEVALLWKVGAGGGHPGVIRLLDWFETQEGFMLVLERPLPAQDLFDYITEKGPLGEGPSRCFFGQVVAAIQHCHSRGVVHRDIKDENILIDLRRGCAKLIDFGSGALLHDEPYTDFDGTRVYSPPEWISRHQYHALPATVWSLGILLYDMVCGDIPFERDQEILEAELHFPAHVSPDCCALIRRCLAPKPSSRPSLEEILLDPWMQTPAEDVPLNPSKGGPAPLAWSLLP

Dual specificity protein kinase CLK3, sequence (P49761 whole entry): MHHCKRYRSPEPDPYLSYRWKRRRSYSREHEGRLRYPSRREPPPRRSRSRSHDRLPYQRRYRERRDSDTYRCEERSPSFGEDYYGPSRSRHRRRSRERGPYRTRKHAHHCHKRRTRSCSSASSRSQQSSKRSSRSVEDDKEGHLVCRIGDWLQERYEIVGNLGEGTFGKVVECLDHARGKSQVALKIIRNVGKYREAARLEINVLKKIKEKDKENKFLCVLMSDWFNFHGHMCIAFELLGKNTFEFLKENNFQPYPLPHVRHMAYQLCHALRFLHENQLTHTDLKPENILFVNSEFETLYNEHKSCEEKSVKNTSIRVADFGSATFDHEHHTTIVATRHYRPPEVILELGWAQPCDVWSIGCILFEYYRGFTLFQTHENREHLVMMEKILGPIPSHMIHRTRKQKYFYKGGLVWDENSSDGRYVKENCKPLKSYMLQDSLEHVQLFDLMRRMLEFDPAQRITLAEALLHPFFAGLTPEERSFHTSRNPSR
5-hydroxytryptamine receptor 6 (Homo sapiens), sequence (P50406 whole entry): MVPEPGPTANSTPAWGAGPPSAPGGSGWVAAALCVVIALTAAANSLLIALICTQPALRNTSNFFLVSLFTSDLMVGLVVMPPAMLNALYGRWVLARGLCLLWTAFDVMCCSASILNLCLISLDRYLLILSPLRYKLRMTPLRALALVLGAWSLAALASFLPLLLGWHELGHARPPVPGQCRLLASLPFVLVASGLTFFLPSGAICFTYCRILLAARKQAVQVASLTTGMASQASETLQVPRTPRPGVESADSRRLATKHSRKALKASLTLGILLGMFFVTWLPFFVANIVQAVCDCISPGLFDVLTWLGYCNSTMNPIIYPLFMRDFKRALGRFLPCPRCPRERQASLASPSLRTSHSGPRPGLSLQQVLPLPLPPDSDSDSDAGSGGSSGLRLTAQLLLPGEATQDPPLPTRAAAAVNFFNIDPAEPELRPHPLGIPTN
Platelet-derived growth factor receptor alpha, sequence (P16234 whole entry): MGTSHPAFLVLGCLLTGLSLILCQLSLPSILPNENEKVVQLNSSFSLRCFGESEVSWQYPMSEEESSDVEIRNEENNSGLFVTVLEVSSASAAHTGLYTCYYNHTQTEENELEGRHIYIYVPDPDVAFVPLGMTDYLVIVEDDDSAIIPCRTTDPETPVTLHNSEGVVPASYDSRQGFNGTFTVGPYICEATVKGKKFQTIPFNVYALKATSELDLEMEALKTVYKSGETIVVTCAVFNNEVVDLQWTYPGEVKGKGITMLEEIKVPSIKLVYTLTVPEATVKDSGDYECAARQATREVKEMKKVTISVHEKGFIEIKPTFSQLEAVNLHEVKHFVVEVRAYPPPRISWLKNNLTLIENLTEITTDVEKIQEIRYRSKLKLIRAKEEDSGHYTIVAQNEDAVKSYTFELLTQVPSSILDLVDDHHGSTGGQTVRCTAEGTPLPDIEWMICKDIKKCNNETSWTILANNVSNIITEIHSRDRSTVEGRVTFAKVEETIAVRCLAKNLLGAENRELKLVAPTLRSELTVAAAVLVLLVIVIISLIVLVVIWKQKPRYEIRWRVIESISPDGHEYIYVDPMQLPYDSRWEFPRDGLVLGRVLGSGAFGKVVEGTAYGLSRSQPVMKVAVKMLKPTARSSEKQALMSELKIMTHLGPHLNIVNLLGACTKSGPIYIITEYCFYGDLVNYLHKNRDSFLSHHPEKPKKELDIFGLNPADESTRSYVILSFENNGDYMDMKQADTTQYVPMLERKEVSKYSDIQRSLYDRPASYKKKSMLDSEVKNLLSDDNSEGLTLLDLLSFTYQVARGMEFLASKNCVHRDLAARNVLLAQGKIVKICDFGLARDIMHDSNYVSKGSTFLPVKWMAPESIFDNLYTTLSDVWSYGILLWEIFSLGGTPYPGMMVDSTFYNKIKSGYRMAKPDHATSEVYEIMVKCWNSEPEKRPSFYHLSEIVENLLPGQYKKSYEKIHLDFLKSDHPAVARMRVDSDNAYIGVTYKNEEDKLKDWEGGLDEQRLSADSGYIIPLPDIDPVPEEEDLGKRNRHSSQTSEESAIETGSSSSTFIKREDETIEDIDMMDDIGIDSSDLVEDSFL
Tyrosine-protein kinase Yes (Homo sapiens), sequence (P07947 2-543 limits assumed): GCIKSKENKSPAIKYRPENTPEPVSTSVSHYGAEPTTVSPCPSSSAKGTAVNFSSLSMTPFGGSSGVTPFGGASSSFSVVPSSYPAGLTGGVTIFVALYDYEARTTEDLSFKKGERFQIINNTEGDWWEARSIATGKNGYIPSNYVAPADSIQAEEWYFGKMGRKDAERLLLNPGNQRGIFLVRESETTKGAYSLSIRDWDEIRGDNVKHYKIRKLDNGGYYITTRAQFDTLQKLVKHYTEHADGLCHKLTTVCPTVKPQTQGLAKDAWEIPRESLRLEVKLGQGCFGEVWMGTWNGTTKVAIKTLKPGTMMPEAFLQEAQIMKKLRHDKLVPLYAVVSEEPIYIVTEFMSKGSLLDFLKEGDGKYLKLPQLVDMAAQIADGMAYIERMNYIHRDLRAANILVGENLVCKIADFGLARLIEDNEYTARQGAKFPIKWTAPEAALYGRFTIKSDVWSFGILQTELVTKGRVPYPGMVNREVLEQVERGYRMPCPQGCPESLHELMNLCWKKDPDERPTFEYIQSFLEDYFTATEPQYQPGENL
Serine/threonine-protein kinase 33 (Homo sapiens), sequence (Q9BYT3 whole entry, looked up): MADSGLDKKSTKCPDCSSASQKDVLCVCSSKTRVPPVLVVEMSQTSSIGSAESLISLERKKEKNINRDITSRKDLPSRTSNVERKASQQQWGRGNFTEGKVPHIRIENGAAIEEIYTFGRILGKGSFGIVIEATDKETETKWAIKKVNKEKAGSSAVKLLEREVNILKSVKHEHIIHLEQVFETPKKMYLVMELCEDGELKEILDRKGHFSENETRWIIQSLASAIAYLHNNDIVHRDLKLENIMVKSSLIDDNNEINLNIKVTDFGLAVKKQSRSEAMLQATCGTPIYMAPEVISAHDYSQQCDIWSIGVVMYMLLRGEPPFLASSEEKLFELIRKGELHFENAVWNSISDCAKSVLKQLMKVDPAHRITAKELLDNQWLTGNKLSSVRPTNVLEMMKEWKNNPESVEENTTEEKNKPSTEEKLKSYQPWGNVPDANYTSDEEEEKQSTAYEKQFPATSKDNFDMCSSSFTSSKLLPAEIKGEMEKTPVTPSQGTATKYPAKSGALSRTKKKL

For `Cc1ccc(-c2ccc3c(ccc4sc5c(c43)NC[C@@H](C)NC5=O)n2)cn1`, the % of inhibition in [1] was determined as 39%.

Compound `CCN(CC)CCCCNc1ncc2cc(-c3cc(OC)cc(OC)c3)c(NC(=O)NC(C)(C)C)nc2n1` registered a % of control in [2] of 100%. As to `Nc1cnc(N2CCc3cc(S(=O)(=O)Nc4c(F)cc(Cl)cc4F)cc(N4CCCC4=O)c32)nc1` [TP-020n], the % of inhibition in [3] is -26.7%. What is called IC50 is the concentration that inhibits the measured activity by half. A lower IC50 goes with greater potency. As for `COCCN1CCC(c2cc(CN(C)C(=O)c3cccc(Oc4ccccc4)c3)ccn2)CC1`, in [4], the 50% inhibitory concentration (IC50) was over 0.003 µM.

In the case of `COc1cc(Nc2nc(C)cc(-c3cnn4nc(OC)ccc34)n2)cc(C(F)(F)F)c1`, the IC50 in test [5] was over 10 µM. Also, the % of control in [6] worked out at 69%. As for `Cc1cc(CN)cc(C)c1-c1ncn(C)c1-c1cncn1C`, the dTagg in test [7] is 0.3 K; in test [8], -0.7 K. On to `C=CC(=O)Nc1cc(-n2c(=O)ccc3cnc4ccc(-c5ccc(NS(C)(=O)=O)cc5)cc4c32)ccc1C`, for which the % of control in [9] (at 1 µM) and in [9] (at 10 µM) was 100% each time.

Take `CC[C@@H]1[C@H](F)C(=O)N[C@@H]1COc1nccc2cc(C(N)=O)c(OC)cc12` [ZIMLOVISERTIB]: the % of inhibition in [10] worked out at 9.07%. In test [11], `N#Cc1cccc(-c2c[nH]c3ncnc(N4CCOCC4)c23)c1` yielded a % of control of 100%.
